From ChEMBL document CHEMBL1154514, “Synthesis and biological evaluation of N-mercaptoacylcysteine derivatives as leukotriene A4 hydrolase inhibitors” (Bioorg Med Chem Lett, 2009)

Legend:
[1] = target: T1, Leukotriene A-4 hydrolase (Cavia porcellus, UniProt P19602); test: Inhibition of LTA4 hydrolase in guinea pig lung assessed as inhibition of LTB4 production
T1 sequence (P19602 whole entry): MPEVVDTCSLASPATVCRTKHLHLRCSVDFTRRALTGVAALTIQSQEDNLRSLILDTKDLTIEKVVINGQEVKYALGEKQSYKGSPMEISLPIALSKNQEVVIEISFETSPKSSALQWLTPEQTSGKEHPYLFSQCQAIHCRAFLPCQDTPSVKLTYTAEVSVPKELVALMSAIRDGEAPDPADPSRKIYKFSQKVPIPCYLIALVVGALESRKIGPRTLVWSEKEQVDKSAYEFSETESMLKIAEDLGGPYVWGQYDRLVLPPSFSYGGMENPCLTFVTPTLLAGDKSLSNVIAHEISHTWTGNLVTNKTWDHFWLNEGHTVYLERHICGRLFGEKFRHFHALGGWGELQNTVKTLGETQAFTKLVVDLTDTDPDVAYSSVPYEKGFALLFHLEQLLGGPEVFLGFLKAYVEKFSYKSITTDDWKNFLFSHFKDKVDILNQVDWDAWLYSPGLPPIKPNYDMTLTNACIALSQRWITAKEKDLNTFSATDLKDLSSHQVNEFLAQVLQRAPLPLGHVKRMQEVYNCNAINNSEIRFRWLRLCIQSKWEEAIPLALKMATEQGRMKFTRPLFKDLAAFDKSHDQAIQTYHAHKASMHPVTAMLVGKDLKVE

[2] = target: Angiotensin-converting enzyme (Homo sapiens, UniProt P12821); test: Inhibition of angiotensin-converting enzyme in whole blood by HPLC; assay type: tissue-based
Angiotensin-converting enzyme, sequence (P12821 whole entry): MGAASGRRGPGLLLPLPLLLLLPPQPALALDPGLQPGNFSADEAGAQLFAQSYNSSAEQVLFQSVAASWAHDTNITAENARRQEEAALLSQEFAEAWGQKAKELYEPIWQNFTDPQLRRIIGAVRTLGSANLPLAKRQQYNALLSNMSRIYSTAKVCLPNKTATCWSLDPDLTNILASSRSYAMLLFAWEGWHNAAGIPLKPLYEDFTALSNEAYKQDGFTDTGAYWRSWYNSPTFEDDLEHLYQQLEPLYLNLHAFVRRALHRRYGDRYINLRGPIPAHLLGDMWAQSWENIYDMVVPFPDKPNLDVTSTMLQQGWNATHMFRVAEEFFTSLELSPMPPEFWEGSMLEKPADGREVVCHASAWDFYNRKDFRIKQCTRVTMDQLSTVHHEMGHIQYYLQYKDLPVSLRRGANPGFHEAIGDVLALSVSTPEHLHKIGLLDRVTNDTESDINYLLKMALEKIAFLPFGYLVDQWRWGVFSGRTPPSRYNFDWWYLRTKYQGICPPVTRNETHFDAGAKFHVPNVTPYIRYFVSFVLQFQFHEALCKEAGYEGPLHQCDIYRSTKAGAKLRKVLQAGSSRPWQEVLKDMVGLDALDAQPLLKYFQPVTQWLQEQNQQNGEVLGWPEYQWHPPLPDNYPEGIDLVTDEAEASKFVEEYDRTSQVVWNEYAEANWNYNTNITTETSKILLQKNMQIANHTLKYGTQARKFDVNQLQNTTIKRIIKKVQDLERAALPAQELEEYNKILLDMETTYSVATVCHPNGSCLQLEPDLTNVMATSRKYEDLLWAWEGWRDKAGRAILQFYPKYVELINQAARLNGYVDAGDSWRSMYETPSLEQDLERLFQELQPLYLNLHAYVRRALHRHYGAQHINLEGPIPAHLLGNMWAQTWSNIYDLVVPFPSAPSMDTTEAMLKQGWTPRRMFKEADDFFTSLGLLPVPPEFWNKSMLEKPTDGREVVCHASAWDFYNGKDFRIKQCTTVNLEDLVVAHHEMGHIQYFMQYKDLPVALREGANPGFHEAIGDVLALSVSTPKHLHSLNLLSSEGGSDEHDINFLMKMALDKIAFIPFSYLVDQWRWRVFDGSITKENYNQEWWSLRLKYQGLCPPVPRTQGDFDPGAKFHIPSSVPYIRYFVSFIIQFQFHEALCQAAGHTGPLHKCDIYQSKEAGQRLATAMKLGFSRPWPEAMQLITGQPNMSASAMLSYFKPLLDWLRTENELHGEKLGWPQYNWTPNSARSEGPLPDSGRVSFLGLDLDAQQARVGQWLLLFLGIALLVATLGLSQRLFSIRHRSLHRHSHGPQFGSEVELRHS

Collagenase 3 = Collagenase 3 (Homo sapiens, UniProt P45452); test: Inhibition of type 3 collagenase
[3] = target: Aminopeptidase N (Homo sapiens) (UniProt P15144); test: Inhibition of aminopeptidase M at 100 uM
Aminopeptidase N (Homo sapiens), sequence (P15144 whole entry): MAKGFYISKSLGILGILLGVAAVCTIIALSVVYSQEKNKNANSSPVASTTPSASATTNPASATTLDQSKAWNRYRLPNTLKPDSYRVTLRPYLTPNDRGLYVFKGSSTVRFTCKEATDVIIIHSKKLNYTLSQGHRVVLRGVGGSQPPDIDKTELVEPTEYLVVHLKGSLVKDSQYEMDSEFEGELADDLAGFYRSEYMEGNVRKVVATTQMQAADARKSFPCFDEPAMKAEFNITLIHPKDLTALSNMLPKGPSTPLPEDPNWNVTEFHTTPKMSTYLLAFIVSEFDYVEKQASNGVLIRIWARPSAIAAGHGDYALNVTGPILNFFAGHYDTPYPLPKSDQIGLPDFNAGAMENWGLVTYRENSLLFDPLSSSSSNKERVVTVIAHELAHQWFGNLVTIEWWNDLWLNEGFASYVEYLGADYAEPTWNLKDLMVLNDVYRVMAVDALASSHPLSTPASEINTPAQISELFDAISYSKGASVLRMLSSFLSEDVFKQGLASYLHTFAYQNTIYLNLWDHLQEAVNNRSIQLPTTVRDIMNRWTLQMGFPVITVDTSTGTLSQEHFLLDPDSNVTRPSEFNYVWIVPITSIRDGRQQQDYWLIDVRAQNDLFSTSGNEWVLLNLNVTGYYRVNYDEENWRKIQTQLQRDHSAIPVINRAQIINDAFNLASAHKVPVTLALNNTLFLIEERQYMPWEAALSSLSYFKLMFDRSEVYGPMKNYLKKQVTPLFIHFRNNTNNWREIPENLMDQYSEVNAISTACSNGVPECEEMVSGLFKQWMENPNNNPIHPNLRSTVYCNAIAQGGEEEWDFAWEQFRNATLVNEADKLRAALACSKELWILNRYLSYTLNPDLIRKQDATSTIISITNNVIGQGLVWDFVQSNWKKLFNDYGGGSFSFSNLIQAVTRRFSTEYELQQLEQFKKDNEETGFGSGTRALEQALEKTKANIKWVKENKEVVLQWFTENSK

[4] = target: T2, Interstitial collagenase (Homo sapiens) (UniProt P03956); test: Inhibition of type 1 collagenase at 100 uM
T2 sequence (whole entry): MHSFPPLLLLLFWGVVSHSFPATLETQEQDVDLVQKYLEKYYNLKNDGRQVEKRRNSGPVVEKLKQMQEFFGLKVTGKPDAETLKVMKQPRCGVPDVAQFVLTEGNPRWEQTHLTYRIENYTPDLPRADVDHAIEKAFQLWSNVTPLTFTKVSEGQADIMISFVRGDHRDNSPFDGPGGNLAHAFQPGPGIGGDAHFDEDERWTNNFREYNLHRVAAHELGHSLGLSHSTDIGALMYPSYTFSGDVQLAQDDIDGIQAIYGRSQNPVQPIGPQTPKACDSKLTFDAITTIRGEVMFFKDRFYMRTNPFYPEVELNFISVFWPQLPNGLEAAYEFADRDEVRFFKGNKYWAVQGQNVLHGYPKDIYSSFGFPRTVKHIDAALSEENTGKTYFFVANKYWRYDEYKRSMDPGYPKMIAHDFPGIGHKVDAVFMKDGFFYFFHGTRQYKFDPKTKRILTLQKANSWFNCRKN

[5] = target: Neprilysin (Homo sapiens) (UniProt P08473); test: Inhibition of endopeptidase 24.11 at 100 uM
Neprilysin (Homo sapiens), sequence (P08473 whole entry): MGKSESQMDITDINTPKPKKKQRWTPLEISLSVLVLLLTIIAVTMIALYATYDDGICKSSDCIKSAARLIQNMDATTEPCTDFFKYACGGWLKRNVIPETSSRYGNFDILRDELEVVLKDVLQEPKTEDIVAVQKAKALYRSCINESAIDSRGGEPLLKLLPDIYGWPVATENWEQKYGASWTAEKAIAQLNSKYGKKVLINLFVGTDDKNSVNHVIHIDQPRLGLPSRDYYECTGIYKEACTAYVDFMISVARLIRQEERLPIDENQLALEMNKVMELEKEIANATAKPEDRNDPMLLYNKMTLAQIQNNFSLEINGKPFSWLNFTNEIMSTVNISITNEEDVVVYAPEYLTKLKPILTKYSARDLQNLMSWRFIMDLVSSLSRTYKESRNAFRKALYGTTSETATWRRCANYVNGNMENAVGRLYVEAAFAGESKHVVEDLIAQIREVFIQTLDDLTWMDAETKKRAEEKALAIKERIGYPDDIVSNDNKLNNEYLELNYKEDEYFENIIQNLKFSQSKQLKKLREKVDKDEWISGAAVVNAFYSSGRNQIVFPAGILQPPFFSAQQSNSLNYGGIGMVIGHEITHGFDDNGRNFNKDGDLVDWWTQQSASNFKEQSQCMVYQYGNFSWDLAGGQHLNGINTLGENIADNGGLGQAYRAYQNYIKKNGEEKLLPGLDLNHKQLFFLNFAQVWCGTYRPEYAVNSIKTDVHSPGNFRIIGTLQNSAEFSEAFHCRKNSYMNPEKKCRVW

[6] = target: T3, Endothelin-converting enzyme 1 (Homo sapiens) (UniProt P42892); test: Inhibition of endothelin-converting enzyme 1 at 100 uM
T3 sequence (whole entry): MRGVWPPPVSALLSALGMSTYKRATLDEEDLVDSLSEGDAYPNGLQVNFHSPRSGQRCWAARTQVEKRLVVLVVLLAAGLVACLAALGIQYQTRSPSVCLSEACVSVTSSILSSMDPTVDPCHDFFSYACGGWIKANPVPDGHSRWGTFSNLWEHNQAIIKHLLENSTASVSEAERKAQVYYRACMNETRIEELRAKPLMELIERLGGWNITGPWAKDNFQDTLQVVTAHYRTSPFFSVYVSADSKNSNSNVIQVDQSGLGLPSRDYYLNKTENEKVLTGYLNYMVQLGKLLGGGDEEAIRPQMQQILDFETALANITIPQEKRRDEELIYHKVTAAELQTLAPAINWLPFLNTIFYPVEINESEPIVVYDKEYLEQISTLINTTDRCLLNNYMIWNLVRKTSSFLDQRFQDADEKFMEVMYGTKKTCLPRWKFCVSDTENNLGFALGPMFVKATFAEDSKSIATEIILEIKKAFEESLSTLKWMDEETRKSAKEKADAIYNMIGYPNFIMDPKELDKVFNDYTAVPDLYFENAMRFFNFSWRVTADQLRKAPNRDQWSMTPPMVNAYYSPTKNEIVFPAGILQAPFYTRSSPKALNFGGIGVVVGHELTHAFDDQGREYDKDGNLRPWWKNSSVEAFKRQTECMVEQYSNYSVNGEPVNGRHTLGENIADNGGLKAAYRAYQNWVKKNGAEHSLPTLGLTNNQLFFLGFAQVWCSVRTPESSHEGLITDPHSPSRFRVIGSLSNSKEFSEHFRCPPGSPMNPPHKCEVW

Row | SMILES | IC50 ([1]; read-out: IC50) [µM] | IC50 [2] [µM] | IC50 ([1]; read-out: pIC50 (converted)) [µM] | further results
1 | C[C@H](CS)C(=O)N[C@H](CSCc1ccc(N(C)C)cc1)C(=O)O | > 10 |  |  | 
2 | CCC(SC[C@H](NC(=O)[C@H](C)CS)C(=O)O)c1ccc(C(C)C)cc1 (stereo partly drawn) |  | 0.34 |  | 
3 | CC(S)CC(=O)N[C@@H](CSCc1ccc(N(C)C)cc1)C(=O)O (stereo partly drawn) | 7.4 |  |  | 
4 | CC(C)c1ccc(CSC(C)(C)[C@H](NC(=O)[C@H](C)CS)C(=O)O)cc1 | > 10 | > 10 |  | 
5 | CC(C)c1ccc(C(C)SC[C@H](NC(=O)[C@H](C)CS)C(=O)O)cc1 (stereo partly drawn) |  | 0.2 |  | 
6 | CN(C)c1ccc(CSC[C@H](NC(=O)CS)C(=O)O)cc1 | 0.47 |  |  | 
7 | CC(C)c1ccc(C(SC[C@H](NC(=O)[C@H](C)CS)C(=O)O)C(C)C)cc1 (stereo partly drawn) | 0.52 | 0.43 |  | 
8 | CC(C)c1ccc(C(C)(C)SC[C@H](NC(=O)[C@H](C)CS)C(=O)O)cc1 | 0.079 | 0.26 |  | 
9 | CCCCC(SC[C@H](NC(=O)[C@H](C)CS)C(=O)O)c1ccc(C(C)C)cc1 (stereo partly drawn) | 0.51 | 3.6 |  | 
10 | CN(C)c1ccc(CSC[C@H](NC(=O)CCCS)C(=O)O)cc1 | > 10 |  |  | 
11 | C[C@H](CS)C(=O)N[C@@H](CSCc1ccc(-c2ccccc2)cc1)C(=O)O | 0.6 | 0.28 | 0.0794 | 
12 | C[C@H](CS)C(=O)N[C@@H](CSC(C)(C)c1ccc(C2CCCCC2)cc1)C(=O)O |  | 3 |  | 
13 | CC(C)c1ccc(C(SC[C@H](NC(=O)[C@H](C)CS)C(=O)O)c2ccccc2)cc1 (stereo partly drawn) | 0.091 | 1.7 |  | 
14 | C[C@H](CS)C(=O)N[C@@H](CSC(c1ccccc1)c1ccc(C2CCCCC2)cc1)C(=O)O (stereo partly drawn) | 0.21 | > 10 |  | 
15 | C[C@H](CS)C(=O)N[C@@H](CSCc1ccc(N(C)C)cc1)C(=O)O | 0.27 | 0.52 | 0.27 | IC50 (Collagenase 3): Not Active; inhibition [3]: 42%; inhibition [4]: 3%; inhibition [5]: 16%; inhibition [6]: 8%
16 | CCCC(SC[C@H](NC(=O)[C@H](C)CS)C(=O)O)c1ccc(C(C)C)cc1 (stereo partly drawn) | 0.18 | 0.42 |  | 
17 | CN(C)c1ccc(CSC[C@H](NC(=O)CCS)C(=O)O)cc1 | > 10 |  |  | 

More lines, main results first:

Row | IC50 ([1]; read-out: IC50) [µM] | IC50 [2] [µM] | IC50 ([1]; read-out: pIC50 (converted)) [µM] | SMILES | further results
18 | > 10 |  |  | C[C@H](CS)C(=O)N[C@@H](CSCc1cccc(N(C)C)c1)C(=O)O | 
19 | 2.4 | 0.1 | 2.4 | COc1ccc(CSC[C@H](NC(=O)[C@H](C)CS)C(=O)O)cc1 | 
20 | 0.64 | 0.34 | 0.64 | CCOc1ccc(CSC[C@H](NC(=O)[C@H](C)CS)C(=O)O)cc1 | 
21 | 1.7 | 0.37 | 1.7 | C[C@H](CS)C(=O)N[C@@H](CSCc1ccc(Oc2ccccc2)cc1)C(=O)O | 
22 | > 10 |  |  | C[C@H](CS)C(=O)N[C@@H](CCSCc1ccc(N(C)C)cc1)C(=O)O | 
23 |  | 0.13 | 0.024 | C[C@H](CS)C(=O)N[C@@H](CSCc1ccc(C(C)(C)C)cc1)C(=O)O | 
24 | > 10 |  |  | C[C@@H](S)C(=O)N[C@@H](CSCc1ccc(N(C)C)cc1)C(=O)O | 
25 | 0.4 | 0.26 |  | C[C@H](CS)C(=O)N[C@@H](CSCc1ccc(OC(F)(F)F)cc1)C(=O)O | 
26 | 0.61 | 0.28 | 0.61 | C[C@H](CS)C(=O)N[C@@H](CSCc1ccc(Br)cc1)C(=O)O | 
27 | > 10 |  |  | C[C@H](S)C(=O)N[C@@H](CSCc1ccc(N(C)C)cc1)C(=O)O | 
28 |  | 0.021 | 0.28 | CCc1ccc(CSC[C@H](NC(=O)[C@H](C)CS)C(=O)O)cc1 | 
29 |  | 0.3 |  | CSc1ccc(CSC[C@H](NC(=O)[C@H](C)CS)C(=O)O)cc1 | 
30 |  | 0.21 | 0.072 | CCCc1ccc(CSC[C@H](NC(=O)[C@H](C)CS)C(=O)O)cc1 | 
31 | 0.53 | 0.3 |  | C[C@H](CS)C(=O)N[C@@H](CSCc1ccc(C#N)cc1)C(=O)O | 
32 |  | 0.34 | 0.14 | C[C@H](CS)C(=O)N[C@@H](CSCc1ccc(C(F)(F)F)cc1)C(=O)O | 
33 | 1.7 | 0.25 | 1.7 | C[C@H](CS)C(=O)N[C@@H](CSCc1ccc(Cl)cc1)C(=O)O | 
34 |  | 0.3 |  | C[C@H](CS)C(=O)N[C@@H](CSCc1ccc(S(C)(=O)=O)cc1)C(=O)O | 
35 | 4.9 | 0.32 |  | C[C@H](CS)C(=O)N[C@@H](CSCc1ccc([N+](=O)[O-])cc1)C(=O)O | 
36 |  | 4 | 0.079 | C[C@H](CS)C(=O)N[C@@H](CSCc1ccc(C2CCCCC2)cc1)C(=O)O | 
37 |  | 4.6 |  | CCN(CC)c1ccc(CSC[C@H](NC(=O)[C@H](C)CS)C(=O)O)cc1 | 
38 |  | 0.3 | 0.2 | CC(C)c1ccc(CSC[C@H](NC(=O)[C@H](C)CS)C(=O)O)cc1 | 
39 |  | 0.14 | 0.015 | C[C@H](CS)C(=O)N[C@@H](CSCc1ccc(I)cc1)C(=O)O | 
40 | 7.2 | 0.24 | 7.2 | Cc1ccc(CSC[C@H](NC(=O)[C@H](C)CS)C(=O)O)cc1 | 
41 | > 10 | 0.1 | > 10 | C[C@H](CS)C(=O)N[C@@H](CSCc1ccc(F)cc1)C(=O)O | 
42 | > 10 | 0.034 |  | C[C@H](CS)C(=O)N[C@@H](CSCc1ccccc1)C(=O)O | 
